The values that follow come from patent US12326385B2, “Cell-permeable fluorogenic fluorophores” (MAX-PLANCK-GESELLSCHAFT ZUR FÖRDERUNG DER WISSENSCHAFTEN E. …, priority 2018, dated 2025).

Marks after values point to notes of the source that are not given here.

The nature of data set [1]: UV absorbance spectra in water-dioxane mixtures (D50). Format: physicochemical. To be noted: dioxane-H2O mixture (v/v: 90/10-10/90), dielectric constant at half-maximal zwitterion absorbance. The text has this: The inventors' efforts to improve the permeability and fluorogenicity of rhodamine derivatives for live-cell imaging focused on increasing the propensity of rhodamines to form the spirocyclic, non-fluorescent form without affecting the spectroscopic properties of the parental molecule. The inventors initially considered replacing the carboxylic acid responsible for formation of the spirolactone with an amide. However, such rhodamine derivatives have been reported to strongly favor spirolactams at physiological pH, making them unsuitable for live-cell imaging. The inventors therefore attempted to destabilize the spirolactam by attaching different electron-withdrawing groups to the underlying amides. Specifically, the inventors converted 6-carboxytetramethylrhodamine (6-TAMRA), a widely used fluorophore with good photophysical properties, into the corresponding acyl cyanamide (132), acyl sulfonamide (133) and acyl sulfamide (134 and 135), (FIG. 32c). The acyl cyanamide of rhodamine B was previously reported to exist as a fluorescent zwitterion at physiological pH. Acyl sulfonamides and acyl sulfamides are used in medicinal chemistry as anionic pharmacophores. Amides 132-135 were prepared in three simple steps from commercially available 6-TAMRA (FIG. 32c). To investigate the propensity of these amides to form the corresponding spirolactams, the inventors measured their absorbance spectra in water-dioxane mixtures with […]. The equilibrium between the zwitterionic and spirocyclic form can then be characterized by the D50 value, which is defined as the dielectric constant at which absorbance of the fluorescent zwitterion is decreased by half compared to the highest recorded absorbance value measured in dioxane-water mixtures. […] In comparison, the D50 value of TAMRA is around 10 showing that in aqueous solution TAMRA exists predominantly in its open form and TAMRA-based probes are usually not fluorogenic. The measured D50 values of amides 132-135 ranged from 32 to around 60 (FIG. 32d), which indicates the potential of these fluorophores for the generation of permeable and fluorogenic probes. […] The possibility to tune the equilibrium between the open and closed form of the fluorophore by varying the substituents on the amide is an important feature of this approach.
Measurements of UV Absorbance Spectra in Water-Dioxane Mixtures
Solutions of 5 μM Rhodamine B, RhB-CH3 (201, Z=CH3), RhB-Ben (201, Z=CH2Ph), RhB-CN (201, Z=CN), RhB-SCH3 (115), RhB-SNH2 (116), RhB-SNMe2 (117), RhB-CONH2 (118), WS1-SCF3, (119) WS1-SCH3 (120), WS1-CN (121), WS1-SNH2 (122), WS1-SO (123), WS1-UREA (124) in water-dioxane mixtures containing 10%, 20%, 30%, 40%, 50%, 60%, 70%, 80% and 90% of dioxane (by volume) were prepared. The absorbance spectra were recorded using a Spark® microplate reader (Tecan). The spectra were integrated from 400 to 700 nm for Rhodamine B-based fluorophores and from 350 to 750 nm for WS1-based fluorophores using the software Prism 7. Normalized integrals were plotted against dielectric constant of water-dioxane mixture.

Data set [2] can be described thus: UV-Vis and fluorescence spectroscopy of free dye or probe in buffer or SDS. The data set is classed as physicochemical. The method, then:
UV-Vis and Fluorescence Spectroscopy
Spectroscopy was performed using 96-well plate (Thermo Fisher) with optical bottom. All measurements were taken at ambient temperature (25±2° C.). Absorption and fluorescence spectra were recorded on Spark® microplate reader (Tecan). Maximum absorption wavelength (λabs), and maximum emission wavelength (λem) were taken in 10 mM HEPES, pH 7.3 buffer unless otherwise noted; reported values for ε are averages (n=3). Normalized spectra are shown for clarity.
(§1) SDS (10% in 10 mM HEPES) was added with dilution of 100 folds as a control group. Absorbance and fluorescence measurements were performed in 96-well plate (Thermos Fisher) with optical bottom.

The subject of data set [3] is SNAP-Halo-tag. Nature of the data set: Increase in absorbance and fluorescence on binding to SNAP-HaloTag protein in vitro. Format: biochemical. To be noted: binding with SNAP-Halo-tag. The method, then: Measurement of Increase in Absorbance and Fluorescence.
SNAP-HaloTag protein were used as a 85 μM-200 μM solution in 75 mM NaCl, 50 mM TRIS-HCl, pH 7.4 with 50% v/v glycerol (TBS-glycerol). SNAPTag and HaloTag based fluorogenic probes were diluted to 1.0-2.0 μM in 10 mM HEPES, pH 7.3. Then an aliquot of SNAPTag/HaloTag protein (1.5-2.0 equiv) was added and the resulting mixture was incubated until consistent absorbance signal was observed (˜60 min).
as §1

For data set [4], the system named is F-actin in U2OS cells. Kind of data set: No-wash live-cell imaging of F-actin. Format: cell-based. The text has this: Fluorescent probes for live-cell imaging of cytoskeletal structures have become important tools in the life sciences. In particular, the far-red, SiR-based probes for F-actin (SiR-actin) and microtubules (SiR-tubulin) have become popular as they are fluorogenic and enable no-wash imaging with little background signal. SiR-actin and SiR-tubulin are based on SiR linked to the F-actin-binder jasplakinolide and microtubule-binder docetaxel, respectively. Binding to their targets shifts for both probes the equilibrium between the cell-permeable spirolactone and the fluorescent zwitterion towards the fluorescent form. To generate fluorescent stains for F-actin and microtubule in different colors, the inventors coupled jasplakinolide and docetaxel to 6-TAMRA and its N,N-dimethylsulfamide derivative (probes 169 and 172, named MaP555-actin and MaP555-tubulin in the following). […] The specificity of MaP555-actin and MaP555-tubulin was further confirmed by co-staining with SiR-actin and SiR-tubulin. […] Similarly, binding of MaP555-tubulin to microtubules caused a high increase in absorbance (5.8-fold) and fluorescence (11-fold).
In addition, the inventors coupled the acyl sulfonamide of carbopyronine to jasplakinolide, yielding the actin probe MaP618-actin (171).

The test system of data set [5] is F-actin. Kind of data set: In vitro absorbance and fluorescence response on binding to actin. The data set is classed as biochemical. The conditions noted are these: for ε: general actin buffer; for F/F0: ± s.e.m.; for increase in absorbance / increase in fluorescence intensity: upon binding to F-actin, in vitro.
Setting [6] is: 0.1% SDS in HEPES buffer (pH 7.3).
[7] abbreviates: 0.2% SDS in general actin buffer.
Setting [8] is: MaP618-actin, orange fluorescence.

Turning to `CN(C)S(=O)(=O)N1C(=O)c2ccc(C(=O)O)cc2C12c1ccc(N)cc1Oc1cc(N)ccc12` [compound 21], the D50 in data set [1] is reported as 70^d. For the same molecule, the D50 in data set [1] (listed as MaP510) was found to be 70. In data set [2] (setting [6]), this molecule gave a Φ of 0.69. In data set [2] (HEPES buffer (pH 7.3)), the Φ was 0.68, the ε is on record as 74,000^a M^−1cm^−1, the λabs is 502 nm and the λem worked out at 526 nm.
In the case of `CN1CCc2cc3c(cc21)[Si](C)(C)c1cc2c(cc1C31OC(=O)c3ccc(C(=O)O)cc31)CCN2C` [compound 35, reference compound], the Φ in data set [3] was 0.17. Besides, in data set [1], the D50 is 54^d. Moreover, the Φ in data set [2] (setting [6]) worked out at 0.16. In data set [2] (HEPES buffer (pH 7.3)), the ε is 104,000^a M^−1cm^−1, the λabs was determined as 694 nm and the λem was found to be 718 nm.
For `CN1CCc2cc3c(cc21)[Si](C)(C)c1cc2c(cc1C31c3cc(C(=O)O)ccc3C(=O)N1C#N)CCN2C` [compound 140], the D50 in data set [1] was >75^d. In data set [2] (HEPES buffer (pH 7.3)), the ε is listed as 8,200^a M^−1cm^−1, the λabs worked out at 698 nm and the λem came to 720 nm.
Take `CN(C)c1ccc2c(c1)Oc1cc(N(C)C)ccc1C21c2cc(C(=O)O)ccc2C(=O)N1S(=O)(=O)N(C)C` [compound 135]: the D50 in data set [1] is 58^d. Also, the Φ in data set [2] (setting [6]) amounted to 0.43. Also, in data set [2] (HEPES buffer (pH 7.3)), the Φ is listed as 0.4, the ε is recorded as 88,000^a M^−1cm^−1, the λabs came out at 553 nm and the λem is 580 nm.
With `CN(C)c1ccc2c(-c3cc(C(=O)[O-])ccc3C(=O)O)c3ccc(=[N+](C)C)cc-3oc2c1` [6-TAMRA, 6-carboxytetramethylrhodamine, reference compound], the D50 in data set [1] is 12^d. The D50 entry in data set [1] (listed as TAMRA) is “around 10”. This molecule returned a Φ in data set [2] (setting [6]) of 0.39. Besides, in data set [2] (HEPES buffer (pH 7.3)), the Φ is on record as 0.43, the ε is 84,000^a M^−1cm^−1, the λabs was 550 nm and the λem worked out at 578 nm.
Turning to `C/C1=C\CC[C@H](C)OC(=O)C[C@H](c2ccc(O)cc2)NC(=O)[C@@H](Cc2c[nH]c3ccccc23)N(C)C(=O)[C@H](CCCCNC(=O)CCCCCNC(=O)c2ccc3c(c2)C2(c4ccc(N(C)C)cc4Oc4cc(N(C)C)ccc42)N(S(=O)(=O)N(C)C)C3=O)NC(=O)[C@@H](C)C1` [compound 169], the “live-cell staining of F-actin” value in data set [4] is listed as “enabled no-wash, high-contrast staining”. In data set [5] (setting [7]), the Φ is 0.49 and the “ε^SDS” value is recorded as 103,000 M^−1cm^−1. For the same molecule, in data set [5] (binding with actin), the Φ was 0.57, the “ε^protein” value is 95,000 M^−1cm^−1, the λabs is recorded as 558 and the λem was 580. For the same molecule, in data set [5], the ε was 3,600 M^−1cm^−1, the increase in absorbance turned out to be 26 fold and the “increase in fluorescence intensity” value was determined as 107 fold. Besides, the F/F0 in data set [5] (ratio of fluorescence intensities at 580 nm in the presence and absence of actin) is listed as 107 ± 9.6^m.
As for `C/C1=C\CC[C@H](C)OC(=O)C[C@H](c2ccc(O)cc2)NC(=O)[C@@H](Cc2c[nH]c3ccccc23)N(C)C(=O)[C@H](CCCCNC(=O)CCCCCNC(=O)c2ccc3c(c2)C2(c4ccc(N(C)C)cc4C(C)(C)c4cc(N(C)C)ccc42)N(S(C)(=O)=O)C3=O)NC(=O)[C@@H](C)C1` [compound 171], the “live-cell staining of F-actin” value in data set [4] was “clearly reveal F-actin structures”. Besides, in data set [5] (setting [7]), the Φ came to 0.71 and the “ε^SDS” value is 24,000^i M^−1cm^−1. Besides, in data set [5] (setting [8]), the λem came to 635 nm and the λex is 618 nm. Further, in data set [5] (binding with actin), the Φ is 0.78, the “ε^protein” value is on record as 61,000 M^−1cm^−1, the λabs came to 618 and the λem is 635. In addition, in data set [5], the ε is 500 M⁻¹ cm⁻¹, the increase in absorbance is given as 122 fold and the “increase in fluorescence intensity” value was found to be 449 fold. Besides, the “fluorogenicity relative to SiR-actin” value in data set [5] (incubation with F-actin) was “about four times more fluorogenic”. Further, the F/F0 in data set [5] (ratio of fluorescence intensities at 635 nm in the presence and absence of actin) is reported as 449 ± 6.8^j.
Take `CN(C)c1ccc2c(c1)Oc1cc(N(C)C)ccc1C21c2cc(C(=O)O)ccc2C(=O)N1S(N)(=O)=O` [compound 134]: the D50 in data set [1] is listed as 57^d. Also, the Φ in data set [2] (setting [6]) was 0.44^a/0.44^c. For the same molecule, in data set [2] (HEPES buffer (pH 7.3)), the Φ is given as 0.44^a/0.44^c, the ε is recorded as 83,000^a M^−1cm^−1, the λabs is 552 nm and the λem turned out to be 580 nm.
Consider `CN(C)c1ccc2c(c1)Oc1cc(N(C)C)ccc1C21c2cc(C(=O)O)ccc2C(=O)N1S(C)(=O)=O` [compound 133], for which, in data set [1], the D50 is reported as 44^d. The Φ in data set [2] (setting [6]) is recorded as 0.46. Also, in data set [2] (HEPES buffer (pH 7.3)), the Φ was found to be 0.43, the ε is recorded as 89,000^a M^−1cm^−1, the λabs amounted to 553 nm and the λem was determined as 580 nm.
As for `CN(C)c1ccc2c(c1)Oc1cc(N(C)C)ccc1C21c2cc(C(=O)O)ccc2C(=O)N1C#N` [compound 132], the D50 in data set [1] is 32^d. The Φ in data set [2] (setting [6]) was 0.45^a/0.45^c. In data set [2] (HEPES buffer (pH 7.3)), the Φ is 0.45^a/0.45^c, the ε is 89,000^a M^−1cm^−1, the λabs stood at 552 nm and the λem is 580 nm.
